In article PMC4395004 (Pharmaceutical research, 2013):

Assay: PK study of P-S after topical
Format: in vivo, rat
Conditions: for Tmax: LEW/crlBR, rat, po, 50 mg/kg
[1] = oral gavage P-S 50 mg/kg single dose, blood
[2] = oral gavage P-S 50 mg/kg single dose, muscle
[3] = topical PSH, single dose P-S 50 mg/kg on both hind legs, muscle
[4] = topical PSH, single dose P-S 50 mg/kg, blood
[5] = topical PSH, single dose P-S 50 mg/kg, muscle

Structure (SMILES)	Cmax, blood [1]	Tmax, blood [1]	AUC0–24h, muscle [2]	Cmax, muscle [2]	Tmax, muscle [2]	Cmax, muscle [3]	AUC0–24h, blood [4]	Cmax, blood [4]	Tmax, blood [4]	AUC0–24h, muscle [5]	Tmax, muscle [5]	muscle Cmax (topical PSH, muscle)	Tmax (blood)	Tmax (muscle)	AUC0–24h, blood [1]
CC1=C(CC(=O)O)c2cc(F)ccc2/C1=C\c1ccc(S(C)(=O)=O)cc1 [S.sulfone, sulindac sulfone]	52 nmol/g	8 h	764 (nmole/g)*h	40 nmol/g	8 h	12 nmol/g	400 (nmole/g)*h	23 nmol/g	8 h	170 (nmole/g)*h	24 h	≤ 31 nmole/g tissue			
CC1=C(CC(=O)O)c2cc(F)ccc2/C1=C\c1ccc([S+](C)[O-])cc1 (stereo not shown) [Sulindac, sulindac, reference compound]	33 nmol/g		296 (nmole/g)*h	20 nmol/g		31 nmol/g	245 (nmole/g)*h	18 nmol/g		399 (nmole/g)*h		≤ 31 nmole/g tissue	2 h	8 h	405 (nmole/g)*h
CSc1ccc(/C=C2/C(C)=C(CC(=O)O)c3cc(F)ccc32)cc1 [S.sulfide, sulindac sulfide]	13 nmol/g		158 (nmole/g)*h	13 nmol/g		2 nmol/g	122 (nmole/g)*h	10 nmol/g		18 (nmole/g)*h		≤ 31 nmole/g tissue	8 h	8 h	156 (nmole/g)*h
